Source: patent US7202084B2, “Beta-alanine N-methyltransferase” (University of Florida Research Foundation, Inc., priority 2001, dated 2007)
Blank lines part the entries; values can stand above or below the molecule they belong to.

Legend:
[1] = target: T1, L. latifolium NMTase (Limonium latifolium, UniProt Q84N56); experiment: Kinetic characterization of NMTase, radiometric assay; type: biochemical
T1 sequence (Q84N56 1-375): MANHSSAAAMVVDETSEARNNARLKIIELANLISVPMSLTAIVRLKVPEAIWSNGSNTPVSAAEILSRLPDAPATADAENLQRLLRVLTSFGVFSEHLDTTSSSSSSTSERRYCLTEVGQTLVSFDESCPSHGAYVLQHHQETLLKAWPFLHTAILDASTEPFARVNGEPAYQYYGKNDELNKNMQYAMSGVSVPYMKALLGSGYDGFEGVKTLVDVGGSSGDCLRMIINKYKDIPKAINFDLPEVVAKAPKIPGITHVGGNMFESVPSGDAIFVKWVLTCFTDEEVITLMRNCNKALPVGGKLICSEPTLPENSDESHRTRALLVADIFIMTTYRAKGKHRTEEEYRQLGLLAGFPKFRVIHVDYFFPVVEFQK
Method: Enzyme Assay. […] Following incubation at 30° C. for 30 minutes, the reactions were stopped by the addition of 10 μL of 10% (w/v) trichloroacetic acid containing 1 mM of methylated products as unlabeled carrier. Activated charcoal (38 mg.ml^-1) in 0.1 N acetic acid, 250 μL per assay, was added and centrifuged for five minutes. The radioactive product in the supernatant was quantified in 75% Ready Gel using a liquid scintillation counter (Beckman Instruments, Fullerton, Calif.). […] Kinetic Characterization. […] Kinetic constants were derived from the X and Y intercepts of a linear plot of s/v versus s drawn from triplicate assay results. Henderson, P J F (1993) Statistical analysis of enzyme kinetic data. In […]., Enzyme assays a practical approach, IRL Press, Oxford, pp. 276-316.

[2] = target: T1, L. latifolium NMTase; experiment: Effect of a thiol reagent on NMTase activities; type: biochemical; conditions: for % Activity DM: N,N-dimethyl β-alanine as methyl acceptor; for % Activity DM / % Activity MM / % Activity BA: mean ± SE, n=3; for % Activity MM: N-methyl β-alanine as methyl acceptor; for % Activity BA: β-alanine as methyl acceptor
Method: Enzyme Assay. […] The assay mixture contained 54 μL of enzyme preparation in a total volume of 100 μL containing 0.1 M Tris-HCl buffer pH 8.0, 2 mM DTT, 10 mM methyl acceptor, 100 μM AdoMet and 0.027 μM S-Adenosyl-L-[methyl-^3H]Met (200 nCi of radioactivity). Following incubation at 30° C. for 30 minutes, the reactions were stopped by the addition of 10 μL of 10% (w/v) trichloroacetic acid containing 1 mM of methylated products as unlabeled carrier. Activated charcoal (38 mg.ml^−1) in 0.1 N acetic acid, 250 μL per assay, was added and centrifuged for five minutes. The radioactive product in the supernatant was quantified in 75% Ready Gel using a liquid scintillation counter (Beckman Instruments, Fullerton, Calif.). The counting efficiency was 30%.
Effect of a Thiol Reagent. Protein purified using PEG precipitation was assayed with or without added DTT in the presence and absence of the thiol reagent p-hydroxymercuribenzoic acid.

[3] = 0.2 mM pHMB 10 min + 5 mM DTT for 30 min, relative to control
[4] = Minus DTT plus 0.2 mM pHMB, relative to control with 5 mM DTT

- Concentration above which substrate inhibition was exhibited ([1]; at 10 mM β-alanine): above 200 μM
Structure (SMILES): C[S+](CC[C@H](N)C(=O)[O-])C[C@H]1O[C@@H](n2cnc3c(N)ncnc32)[C@H](O)[C@@H]1O (stereo partly drawn) [Ado-Met, S-adenosyl-L-methionine]

- Inhibition of NMTase (in words) [1]: highly inhibitory
- IC50 ([1]; read-out: Concentration giving 50% inhibition of NMTase, 10 mM β-alanine and 100 μM Ado-Met): 40 µM
Structure (SMILES): Nc1ncnc2c1ncn2[C@@H]1O[C@H](CSCC[C@H](N)C(=O)O)[C@@H](O)[C@H]1O [AdoHCy, S-adenosyl-L-homocysteine]

Structure (SMILES): O=C(O)c1cc[c]([Hg+])cc1.[OH-] [pHMB, p-hydroxymercuribenzoate]
- Inhibition of NMTase (in words) [2]: highly inhibited
- Reversibility of the inhibition by DTT [2]: partially reversible
- % Activity DM [2, 3]: 55.2 ± 7.6%
- % Activity MM [2, 3]: 23.0 ± 2.9%
- % Activity BA [2, 3]: 22.6 ± 2.9%
- % Activity DM [2, 4]: 0.4 ± 0.2%
- % Activity MM [2, 4]: 2.4 ± 1.4%
- % Activity BA [2, 4]: 1.3 ± 0.7%
